Results on 11 compounds are retold here after ChEMBL document CHEMBL1201862, “PubChem BioAssay data set” (2004).

Some test systems named below: M14; UO-31; CAKI-1; MDA-MB-231; MOLT-4; HCT-116; MDA-MB-435; SF-539; HOP-92; KM12; SN12C; OVCAR-4; MDA-N; HT-29; SK-MEL-5; SK-MEL-28; MCF7; NCI/ADR-RES; A549; SK-MEL-2.
What all share (test): DTP human tumour cell line panel, 48 h

“And” between values parts separate entries of the source, which are not always exact repeats. Equal values may be shown once.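 Five concentrations, 48 hours, 96-well plates. At the GI50, growth is halved.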 The source made the active and inactive calls. Cut-off read from the data, not from the text of the source: active = GI50 up to about 1.1 µM and inactive = higher.

The term GI50 denotes the concentration that inhibits growth by half. Take `Cc1n[nH]c(=O)n1C1CCCC1`: the GI50 in the test on M14, in the test on UO-31, with CAKI-1, in the test on MDA-MB-231, in the test on MOLT-4 and in the test with HCT-116 was > 100 µM (inactive) throughout. The GI50 in the test with MDA-MB-435, in the test with SF-539, in the test with HOP-92, with KM12, in the test on SN12C and with OVCAR-4 was > 100 µM (inactive) throughout. Besides, the GI50 in the test with MDA-N, with HT-29, in the test on SK-MEL-5, with SK-MEL-28, in the test with MCF7 and in the test on NCI/ADR-RES was > 100 µM (inactive) throughout. For the same compound, the GI50 with A549 is > 100 µM (inactive).
Consider `C=C(C(=O)O)[C@@H]1C[C@@H]2O[C@H]1[C@@H](O)[C@@H](C)CCCC(C)=CCC[C@@]2(C)O`, for which the GI50 is > 100 µM (inactive) and > 77.4 µM (inactive) with M14; > 100 µM (inactive) and 69 µM (inactive) with UO-31; > 100 µM (inactive) in the test on SK-MEL-2; > 100 µM (inactive) in the test on MDA-MB-231; 64.1 µM (inactive) and > 83.4 µM (inactive) in the test on HCT-116; 71.8 µM (inactive) and > 81.3 µM (inactive) in the test on MDA-MB-435. Also, the GI50 in the test with SF-539 was 87.5 µM (inactive); in the test with HOP-92, > 100 µM (inactive) and 99.8 µM (inactive); in the test on KM12 it was > 100 µM (inactive); in the test on SN12C, > 100 µM (inactive); in the test with OVCAR-4, > 100 µM (inactive); with MDA-N, 59.4 µM (inactive) and 71.1 µM (inactive). Moreover, the GI50 is > 100 µM (inactive) and > 91.6 µM (inactive) in the test with SK-MEL-5; > 100 µM (inactive) in the test with SK-MEL-28; 46 µM (inactive) and > 91.6 µM (inactive) in the test with MCF7; > 100 µM (inactive) in the test with NCI/ADR-RES; > 100 µM (inactive) in the test with A549.
For `CCOC(=O)c1c(N2CCOCC2)ncn(-c2cccc(Cl)c2)c1=O`, the GI50 in the test on M14, in the test on SK-MEL-2, in the test with CAKI-1, in the test on MDA-MB-231, in the test on MOLT-4 and with HCT-116 was > 100 µM (inactive) throughout. Also, the GI50 with MDA-MB-435, in the test on SF-539, in the test on HOP-92, in the test with KM12, with SN12C and with OVCAR-4 was > 100 µM (inactive) in each case. Further, the GI50 in the test with MDA-N, in the test on HT-29, in the test on SK-MEL-28, in the test with MCF7, in the test on NCI/ADR-RES and in the test on A549 was > 100 µM (inactive) in each case.
On to `O=C(CC(C(=O)c1cccs1)c1ccsc1)c1ccsc1` (stereo unspecified), for which the GI50 with M14 was 16.9 µM (inactive); in the test with UO-31, 31.4 µM (inactive); with MDA-MB-231 it was 30 µM (inactive); in the test on MOLT-4 it was 21 µM (inactive); in the test with HCT-116, 27.4 µM (inactive); in the test with MDA-MB-435, 20.3 µM (inactive). In addition, the GI50 in the test with SF-539 is 27.5 µM (inactive); with HOP-92, 29.2 µM (inactive); in the test with KM12 it was 42.9 µM (inactive); in the test on SN12C, 52 µM (inactive); in the test with OVCAR-4, 27.4 µM (inactive); in the test with MDA-N it was > 10 µM (inactive). The GI50 with HT-29 was 36.6 µM (inactive); in the test with SK-MEL-5 it was 16.1 µM (inactive); with SK-MEL-28, 50.5 µM (inactive); in the test with MCF7, 32.5 µM (inactive); in the test with NCI/ADR-RES, 24.8 µM (inactive); with A549, 45.8 µM (inactive).
On to `COc1ccc(NC(=O)Oc2cc(C)c3ccc(=O)cc-3o2)c(OC)c1.COc1ccc(NC(=O)Oc2ccc3c(C)cc(=O)oc3c2)c(OC)c1`, for which the GI50 in the test with M14, with UO-31, in the test with SK-MEL-2, with CAKI-1, with MDA-MB-231 and in the test on MOLT-4 was > 100 µM (inactive) each time. The GI50 in the test with HCT-116 was > 100 µM (inactive); in the test on MDA-MB-435 it was > 100 µM (inactive); in the test on SF-539, > 100 µM (inactive); in the test with KM12 it was 78.7 µM (inactive); in the test with SN12C, > 100 µM (inactive); in the test on OVCAR-4, 69.8 µM (inactive). In addition, the GI50 in the test on MDA-N, in the test with HT-29, in the test with SK-MEL-5, with SK-MEL-28, with NCI/ADR-RES and with A549 was > 100 µM (inactive) throughout.
As to `Nc1ccccc1.O=P(O)(OP(=O)(O)c1ccccc1)c1ccccc1`, the GI50 in the test with M14, in the test with UO-31, with SK-MEL-2, in the test on CAKI-1, with MDA-MB-231 and in the test with HCT-116 was > 100 µM (inactive) throughout. Besides, the GI50 with MDA-MB-435, in the test with HOP-92, with KM12, in the test on SN12C, with OVCAR-4 and in the test on MDA-N was > 100 µM (inactive) each time. Besides, the GI50 in the test on HT-29, in the test on SK-MEL-5, with SK-MEL-28, with MCF7, in the test with NCI/ADR-RES and with A549 was > 100 µM (inactive) throughout.
As for `N=C(N)C1CN(CC=O)C(=O)NC1=O` (stereo unspecified), the GI50 with M14, in the test on UO-31, with MDA-MB-231, in the test with MOLT-4, in the test with HCT-116 and in the test with MDA-MB-435 was > 100 µM (inactive) each time. The GI50 in the test with HOP-92, with SN12C, with OVCAR-4, in the test with MDA-N, with HT-29 and with SK-MEL-5 was > 100 µM (inactive) throughout. The GI50 with SK-MEL-28, in the test on MCF7, in the test on NCI/ADR-RES and with A549 was > 100 µM (inactive) in each case.
Turning to `CCCCCCCCCCCCCC(=O)NO`, the GI50 with M14 is 15.8 µM (inactive); in the test on UO-31 it was 6.38 µM (inactive); in the test on SK-MEL-2, 23.5 µM (inactive); with CAKI-1, 17.3 µM (inactive); with MDA-MB-231, 7.01 µM (inactive); in the test with MOLT-4, 0.492 µM (active). Also, the GI50 was 8.85 µM (inactive) with HCT-116; 25.3 µM (inactive) in the test on MDA-MB-435; 14.1 µM (inactive) in the test with SF-539; 15.8 µM (inactive) in the test on HOP-92; 9.42 µM (inactive) in the test on KM12; 8.55 µM (inactive) with SN12C. Moreover, the GI50 was 6.79 µM (inactive) with OVCAR-4; 25.7 µM (inactive) with MDA-N; 8.99 µM (inactive) in the test with HT-29; 9.64 µM (inactive) with SK-MEL-5; 31.6 µM (inactive) in the test with SK-MEL-28; 3.8 µM (inactive) with MCF7. In addition, the GI50 with A549 was 9.91 µM (inactive).
`C=CO/N=[N+](\[O-])N(CC)CC`: the GI50 in the test on M14, in the test with CAKI-1, in the test with MDA-MB-231, with MOLT-4, with HCT-116 and with MDA-MB-435 was > 100 µM (inactive) each time. For the same compound, the GI50 with SF-539, in the test on HOP-92, with KM12, with SN12C, in the test with OVCAR-4 and in the test on MDA-N was > 100 µM (inactive) in each case. Further, the GI50 in the test on HT-29, with SK-MEL-5, in the test on SK-MEL-28, in the test on MCF7, with NCI/ADR-RES and in the test with A549 was > 100 µM (inactive) each time.
In the case of `CN1C(=O)CC2CCC(=O)N2c2cccnc21` (stereo unspecified), the GI50 in the test on M14, with UO-31, in the test with SK-MEL-2, in the test with CAKI-1, in the test on MDA-MB-231 and in the test on HCT-116 was > 100 µM (inactive) in each case. In addition, the GI50 with MDA-MB-435, in the test with SF-539, with KM12, in the test on SN12C, in the test with OVCAR-4 and in the test with MDA-N was > 100 µM (inactive) in each case. The GI50 in the test with HT-29, in the test on SK-MEL-5, in the test on SK-MEL-28, in the test with MCF7, with NCI/ADR-RES and with A549 was > 100 µM (inactive) each time.
For `CC1(C)C2CCC1(C)C(N/C(=C(/C(Cl)=C(Cl)Cl)[N+](=O)[O-])n1nnc3ccccc31)C2` (stereo unspecified), the GI50 with M14 is 37.7 µM (inactive); in the test on UO-31, 21 µM (inactive); in the test with SK-MEL-2, 22.9 µM (inactive); in the test with CAKI-1 it was 18.6 µM (inactive); in the test on MDA-MB-231, 22.5 µM (inactive); with HCT-116, 43 µM (inactive). Further, the GI50 is 21.4 µM (inactive) with MDA-MB-435; 33.8 µM (inactive) in the test on SF-539; 21.8 µM (inactive) with KM12; 41.8 µM (inactive) with SN12C; 24.1 µM (inactive) in the test on OVCAR-4; 36.4 µM (inactive) with MDA-N. Also, the GI50 was 39 µM (inactive) in the test on HT-29; 36.7 µM (inactive) in the test on SK-MEL-28; 32.4 µM (inactive) in the test with MCF7; 27.5 µM (inactive) in the test on NCI/ADR-RES; 33.7 µM (inactive) in the test on A549.
